Patent publication US20240122934A1, “COMPOSITIONS AND METHODS OF TREATMENT FOR INHIBITING CAPILLARY TUBE REGRESSION” (University of South Florida, priority 2019, published 2024)
“Also recorded” adds a separate entry of the source.

Experiments:
EC tube networks [1] = assay: 3D collagen EC tube regression assay; format: cell-based, human; settings: for EC tube regression (pro-regressive activity): factor added to established 48 hr EC tube networks, 24 hr
Protocol: (A) EC cultures with tube networks were established for 48 hr followed by the addition of indicated cytokines or thrombin (Thr) for 24 hr. IL-1β and IL-la were added at 1 ng/ml, TNFα at 3.16 ng/ml and thrombin at 1 μg/ml. Bars equal 100 or 200 μm. (B,C,D) EC tube networks were treated with the indicated cytokines and varying concentrations in dose-response analyses and in the presence or absence of thrombin added at 1 μg/ml. After 24 hr, cultures were fixed, stained and quantitated for EC lumen area per field. These curves are from a representative experiment using triplicate wells for each condition. The values (±SD) are derived from analyzed fields (n=15) where total lumen and tube area was measured. Asterisks indicate significance at p<0.05 compared to control and squares indicate significance at p<0.05 compared to the cytokine treatments alone.
ECs (passages 3-6) and pericytes (passages 3-12) were cultured as previously described^49,50. THP-1 cells were cultured in RPMI-1640-20% FCS. THP-1-T macrophages were differentiated for 72 hr. with 50 ng/ml of phorbol ester in RPMI-20% FCS, and then treated for 48 hr. in RPMI-2% FCS prior to adding TLR ligands. THP-1-VT macrophages were induced to differentiate for 72 hr. with 10^-7 M vitamin D3 (Calcitriol) in RPMI-20% FCS, followed by 48 hr. with phorbol ester in RPMI-2% FCS prior to adding TLR ligands.
(§1) ECs or ECs with pericytes were suspended in 3D collagen matrices and incubated at 37° C. in serum-free defined media as described^9,50,51. Recombinant factors or THP-1 conditioned media were added at the indicated doses to existing 48 or 72 hr. cultures with EC only or EC-pericyte tube networks, respectively. After 24 or 48 hr. for EC only or EC-pericyte tubes, respectively, cultures were fixed in 3% glutaraldehyde or 3% paraformaldehyde. EC tube areas were traced and quantitated as described. In some cases, neutralizing antibodies were added (10 μg/ml). For signaling experiments, lysates were prepared from control vs. regressing 3D cultures at different time points.

[2] = system: Lymphatic EC tube networks; assay: lymphatic EC tube network regression; format: cell-based; settings: cytokines 10 ng/ml, thrombin 1 μg/ml, 24 hr
Protocol: Lymphatic EC tube networks were established for 48 hr and at that time, the indicated pro-inflammatory mediators were added. IL-10 and TNFα were added at 10 ng/ml, while thrombin was added at 1 μg/ml. (A) After 24 hr, cultures were fixed, stained with toluidine blue and photographed. (B) The cultures in (A) were quantitated for EC tube area. Asterisks indicate significance at p<0.01 compared to control.

[3] = system: EC-pericyte tube networks; assay: EC-pericyte co-culture regression assay; format: cell-based, human; settings: added to 72 hr co-cultures
Protocol: (A) EC-pericyte (GFP-labeled) co-cultures were established and allowed to form for 72 hr and at this time, the combination of IL-1β (10 ng/ml), TNFα (10 ng/ml) and thrombin (11 μg/ml) were added in combination compared to control and real-time movies were performed. Light and fluorescent image overlays over time are shown in representative fields. Arrowheads indicate clusters of pericytes that accumulate together during regression responses in response to these three factors in combination. After 48 hr, fixed cultures were stained for CD31 to detect ECs and fluorescence image overlays were performed. (B) The same set up was established as in A, except that each individual factor and combination of factors were added. After 48 hr, the cultures were fixed and stained for CD31. Confocal images were obtained, and fluorescence overlay images are shown.
(A) EC-pericyte co-cultures were established for 72 hr, and then were left untreated or with IL-1β (10 ng/ml), TNFα (10 ng/ml), and thrombin (11 μg/ml) in combination. After 48 hr, cultures were fixed and stained with CD31, confocal microscopy and 3D reconstruction of the images allowed for an upright and side view. (B) EC-pericyte tube networks were treated with the indicated single and combined factors and after fixation, EC tube area was quantitated. […] The values (±SD) were obtained from analyzed fields (n=15) where total lumen and tube area was measured. Asterisks indicate increased significance at p<0.05 compared to control, the squares indicate decreased significance at p<0.05 relative to the single factor conditions and the triangle indicates significance at p<0.05 relative to the double factor conditions. (C) EC-pericyte tube networks were treated with indicated combinations of factors. After 48 hr, total GFP fluorescence per well was quantitated as a measure of pericyte number since they are GFP-labeled. […] Asterisks indicate significance at p<0.05 compared to control.
as §1

THP-T macrophages = assay: RT-PCR of cytokine mRNA in TLR ligand-treated macrophages; format: cell-based, human; settings: 100 ng/ml, 4 hr
Protocol: (§2) (A,B) The TLR ligand Pam3CSK4 was added at 100 ng/ml to THP-1 macrophages that were differentiated in two separate ways (THP-1-VT vs. THP-1-T) or to ECs, fibroblasts (Fib), or pericytes (Peri). Conditioned medium was collected after 4 hr and was added at a 1:5 dilution to established EC tube networks vs. control Pam3CSK4 or control RPMI1640 media. Two independent conditioned media batches were obtained for both the THP-1-VT (i.e. VT1, VT2) and THP-1-T (i.e. T1, T2) macrophage cells. IL-la and IL-1β were added separately at 1 ng/ml. After 24 hr, cultures were fixed, stained, photographed (A) and quantitated for EC tube area (B). Bar equals 200 μm. […] The values (±SD) were obtained from analyzed fields (n=15) where total lumen and tube area was measured. Asterisks indicate significance at p<0.05 compared to control. (C) LPS was added at the indicated concentrations (ng/ml) in the presence or absence of recombinant LPS binding protein (LBP) at 1 μg/ml to EC tube networks. EC lumen areas were measured after 24 hr following these additions. (D) THP-T macrophages were treated with control or 100 ng/ml of Pam3CSK4 (Pam) or LPS. After 4 hr, total RNA was obtained, and RT-PCR analysis was performed evaluating the mRNA expression of indicated genes. […] From the real-time videos, EC lumen areas were measured over time (n=6). […]

THP-1 macrophages = assay: TLR ligand activation of cells; conditioned medium tested on EC tube networks; format: cell-based, human
Protocol: as §2

EC sprouts and tubes = assay: angiogenic sprouting assay (ECs invading from monolayer surface); format: cell-based, human; settings: angiogenic sprouting system
Protocol: (A) ECs were seeded onto a monolayer surface and then allowed to invade into the gels to form tubes over a 48 hr period. At this time, cultures were then treated with IL-1β or TNFα and in the absence or presence of FIST. Cultures were fixed after 24 hr, stained and photographed to visualize the monolayer surface and the underlying sprouts and tubes. (B) Cultures were established just like in A and then the Pak2 inhibitor, Frax486 (2.5 μM) or the microtubule depolymerizing agent, vinblastine (100 nM), were added to media in the presence or absence of FIST. Cultures were fixed after 24 hr, stained and photographed. Bar equals 200 μm.
Studies to define the factors and signals that promote endothelial cell (EC) lumen and tube formation, EC sprouting and EC-pericyte tube co-assembly have been performed under serum-free defined conditions so that the functional role of individual molecules that regulate these processes can be assessed. Disclosed herein, the factors that control capillary regression are defined. Capillary regression is a process that has been largely neglected despite the likelihood that it may present a fundamental pathogenic feature of major human diseases where capillary disassembly and regression are known to occur (i.e. hypertension, diabetes, ischemic disease in many tissues, neurodegenerative diseases, and malignant cancer). […] EC tube networks were allowed to form for 48 hr. (vasculogenesis type of assay) and then added these agents in dose-response experiments, showing that they potently induce EC tube regression (at low ng levels) (FIG. 1). Real-time movies were performed to visualize these pro-regressive activities. This experimental approach has utilized assays that mimic vasculogenesis or angiogenic sprouting and these factors induce regression equally well in both assay systems. […] These studies have been performed primarily in 3D collagen matrices, but the same result is also observed in 3D fibrin matrices.

EC tube networks [4] = assay: Western blots of lysates from regressing 3D EC cultures (regression signaling signature); format: cell-based, human; settings: 24-hr. time course, compared to control EC tubes
Protocol: (A,B) ECs tube networks were treated with the indicated factors vs. control and at different time points, lysates were prepared from the 3D cultures. Western blots were performed using the different indicated antibodies. (C) Schematic illustrating findings that define a capillary regression signaling signature.
THP-T macrophages were treated with Pam3CSK4 (Pam) or LPS and conditioned medium was added at a 1:20 or 1:50 dilution, respectively, to EC tube networks. Control and IL10-treated cultures were compared with the conditioned medium treatments within the same experiment. At the indicated time points, lysates were obtained, and Western blots were performed with the indicated antibodies.
as §1

hyaloid vessels = assay: hyaloid vascular regression in mice; format: in vivo; settings: intravitreal injection, vessel number quantitated at P8
Protocol: (A) Intravitreal injection of blocking antibodies directed to both IL-10 and TNFα vs control IgG was performed at postnatal day (P) 6, and hyaloid vessel number was quantitated at P8. (B) Intravitreal injection of IL-10 was performed at P5 vs vehicle control, and hyaloid vessel number was quantitated at P8. (C and D) Hyaloid vessels at P2 and P8 were immunostained for phospho-MLC2 (p-MLC; red) and CD31-positive endothelial cells (ECs; green), and double-positive cells were imaged and quantitated over time. Scale bar=100 μm. E and F, Analysis of ICAM-1 expression at the mRNA (E) and protein level (F) during different stages of hyaloid vessel regression. CD indicates cluster of differentiation; DAPI, 4′6-diamidino-2-phenylindole; ICAM, intercellular adhesion molecule; and MLC, myosin light chain.
In some embodiments, physiologic capillary regression can be modeled in a mouse by examining the postnatal regression of the eye hyaloid vasculature. In some embodiments, this vascular regressive response can depend on the presence of adjacent macrophages which decorate this developmental vascular bed. […] In some embodiments, EC capillary regression during hyaloid regression can include increased expression of ICAM-1 (at the mRNA and protein level) and increased presence of phospho-MLC2 in regressing hyaloid ECs.

Molecule: thrombin
- EC tube regression (pro-regressive activity) (EC tube networks [1]): directly cause capillary tube collapse and regression; also recorded: less effective
- lymphatic tube network regression [2]: regress
- EC tube regression in EC-pericyte co-cultures [3]: marked tube regression in response to each factor individually and, also in combination
- pericyte numbers [3]: an increase in pericyte numbers

Molecule: Pam3CSK4
- EC tube regression (pro-regressive activity) (EC tube networks [1]): Neither Pam3CSK4 or LPS by themselves (with and without the presence of LPS-binding protein, LBP) had any ability to directly cause EC tube regression
- mRNA expression of inflammatory cytokines (THP-T macrophages): marked upregulation of TNFα, IL-1β, IL-la, IL-6 and IL-10 (i.e. an anti-inflammatory cytokine) as well as tissue factor (i.e. F3)
- induction of pro-regressive activities in conditioned media of other cell types (THP-1 macrophages; ECs, pericytes and fibroblasts): failed to induce pro-regressive activities in their conditioned media
- induction of pro-regressive activities in macrophage conditioned medium (THP-1 macrophages; TLR ligand 100 ng/ml added to macrophages, medium collected after 4 hr): highly potent pro-regressive activities in the macrophage conditioned medium

Molecule: TNFα
- EC tube regression in screen of growth factors and cytokines (EC tube networks [1]; 40 and 10 ng/ml, 48 hr EC tube networks): more potent pro-regressive factors than the other factors described herein
- EC tube regression (pro-regressive activity) (EC tube networks [1]): directly cause capillary tube collapse and regression
- degeneration of sprouts and EC monolayer (EC sprouts and tubes): induce degeneration of the invading sprouts, but also the EC monolayer surface where the sprouts originated
- lymphatic tube network regression [2]: regress
- EC tube regression in EC-pericyte co-cultures [3]: marked tube regression in response to each factor individually and, also in combination
- pericyte numbers [3]: an increase in pericyte numbers
- ICAM-1 and VCAM-1 levels (EC tube networks [4]): Strong upregulation of ICAM-1 and VCAM-1
- phospho-Pak2, phospho-cofilin, acetylated tubulin, procaspase3 levels (EC tube networks [4]): decreased levels of phospho-Pak2, phospho-cofilin, acetylated tubulin and procaspase3
- phospho-p38, phospho-JNK, phospho-MLC2 levels (EC tube networks [4]): increased levels of phospho-p38, phospho-JNK, and phospho-MLC2

B1: IL-10: anti-inflammatory cytokine (protein, UniProt P22301 19-178, looked up)
Interleukin-10: SPGQGTQSENSCTHFPGNLPNMLRDLRDAFSRVKTFFQMKDQLDNLLLKESLLEDFKGYLGCQALSEMIQFYLEEVMPQAENQDPDIKAHVNSLGENLKTLRLRLRRCHRFLPCENKSKAVEQVKNAFNKLQEKGIYKAMSEFDIFINYIEAYMTMKIRN
- hyaloid vessel regression (hyaloid vessels): inhibited hyaloid regression
